These results are taken from patent US6730705B1, “Alkoximino acetic acid amides” (Bayer Aktiengesellschaft, priority 1995, dated 2004).

Structures are written as SMILES.

A short description of the first data set: log p (physical constant, Table 7). Particulars: E/Z isomer mixture; first of two printed values (x/y).
For the compound `CON=C(C(=O)NCCc1ccc(OC)c(OC)c1)c1ccc(C)cc1` (mixture of isomers) [Compound 41], the log p turned out to be 2.53.

For the compound `CCON=C(C(=O)NCCc1ccc(OC)c(OC)c1)c1ccc(Cl)cc1` (mixture of isomers) [Compound 77], the log p came out at 3.07.

The same data set, now with this note: E/Z isomer mixture; second of two printed values (x/y).
As for `CON=C(C(=O)NCCc1ccc(OC)c(OC)c1)c1ccc(C)cc1` (mixture of isomers) [Compound 41], the log p amounted to 2.77.

Turning to `CCON=C(C(=O)NCCc1ccc(OC)c(OC)c1)c1ccc(Cl)cc1` (mixture of isomers) [Compound 77], the log p was found to be 3.34.

Staying with this data set, now noted: physical constant of Table 7.
On to `CCOc1ccc(/C(=N\OC)C(=O)NCCc2ccc(OC)c(OC)c2)cc1` [Compound 82], for which the log p result is reported as “log p: 2.59”.

For the compound `CCO/N=C(/C(=O)NCCc1ccc(OC)c(OC)c1)c1ccc(C)cc1` [Compound 110], the log p entry is “log p: 2.85”.

Turning to `CO/N=C(\C(=O)NCCc1ccc(OC)c(OC)c1)c1ccc(C)c(C)c1` [Compound 91], the log p result was “log p: 3.00”.

For `CO/N=C(/C(=O)NCCc1ccc(OC)c(OC)c1)c1ccc(F)cc1` [Compound 98], the log p entry is on record as “log p: 2.39”.

Take `CON=C(C(=O)NCCc1ccc(OC)c(OC)c1)c1ccc2c(c1)CCCC2` [Compound 117]: the log p result is listed as “log p: 3.44”.

`CON=C(C(=O)NCCc1ccc(OC)c(OC)c1)c1ccc(OCc2ccccc2)cc1` [Compound 126]: the log p entry is given as “log p: 3.49”.

For `CO/N=C(/C(=O)NCCc1ccc(OC)c(OC)c1)c1ccc(C)c(C)c1` [Compound 99], the log p result is given as “log p: 2.75”.

As to `CCc1ccc(/C(=N\OC)C(=O)NCCc2ccc(OC)c(OC)c2)cc1` [Compound 81], the log p result was “log p: 2.86”.

For `CCc1ccc(C(=NOC)C(=O)NCCc2ccc(OC)c(OC)c2)s1` [Compound 127], the log p result is on record as “log p: 3.22”.

Turning to `CO/N=C(/C(=O)NCCc1ccc(OC)c(OC)c1)c1ccc(Br)cc1` [Compound 96], the log p result is “log p: 2.82”.

Regarding `CO/N=C(/C(=O)NCCc1ccc(OC)c(OC)c1)c1ccc(Cl)cc1` [Compound 24], the log p entry is “log p: 2.99”.

For the compound `CON=C(C(=O)NCCc1ccc(OC)c(OC)c1)c1ccc(C)s1` [Compound 73], the log p entry is listed as “log p: 2.46”.

As for `CCON=C(C(=O)NCCc1ccc(OC)c(OC)c1)c1ccc(Br)cc1` [Compound 146], the log p result is “log p: 3.15”.

In the case of `CCc1ccc(C(=NOC)C(=O)NCCc2ccc(OC)c(OC)c2)s1` [Compound 143], the log p result is given as “log p: 2.77”.

`CCCCc1ccc(C(=NOC)C(=O)NCCc2ccc(OC)c(OC)c2)cc1` [Compound 132]: the log p entry is “log p: 3.62”.

`CON=C(C(=O)NCCc1ccc(OC)c(OC)c1)c1ccc2c(c1)CCC2` [Compound 114]: the log p entry is recorded as “log p: 3.01”.

`CCCc1ccc(C(=NOC)C(=O)NCCc2ccc(OC)c(OC)c2)cc1` [Compound 124]: the log p entry was “log p: 3.25”.

A short description of another data set: log p (physical constant of Table 7). The following applies: single isomer (E or Z as listed in Table 7).
As to `CCON=C(C(=O)NCCc1ccc(OC)c(OC)c1)c1ccc2c(c1)CCCC2` [Compound 173], the log p entry is given as “log p: 3.53”.

For the compound `CCON=C(C(=O)NCCc1ccc(OC)c(OC)c1)c1ccc2c(c1)CCC2` [Compound 170], the log p entry is recorded as “log p: 3.25”.

On to `CO/N=C(/C(=O)NCCc1ccc(OC)c(OC)c1)c1ccc(C2CCCCC2)cc1` [Compound 171], for which the log p result is recorded as “log p: 4.03”.
